Measurements: patent US20240009174A1, “METHODS FOR DISRUPTING MITOCHONDRIAL UNFOLDED PROTEIN RESPONSE” (Health Research, Inc., priority 2020, published 2024)

Legend:
Type in all cases: cell-based
[1] = system: RWPE-1 cells; assay: Apoptosis in non-carcinoma RWPE-1 cells (Annexin V/PI labeling); conditions: 24 h and 48 h, doses 5, 10, 20
Method: FIG. 9. Structure of DCEM1 is shown in (A). (B) Human prostate epithelial non carcinoma RWPE-1 cells were treated with DCEM1 at indicated doses for 24 h and 48 h and apoptotic cells were quantified by Annexin V/PI labeling as described in material and methods. In (B), the bars in each series from left to right are DMSO, 5, 10, and 20.
(§1) Identification of novel inhibitor of HSP60-ClpP interaction that disrupts UPR^mt function and induces PCa cell death. Having shown that two arms of UPR^mt, HSP60 chaperonin and ClpP protease interact and play critical role in PCa cell survival, an in silico analysis was performed and a small molecule library (developed by Enamine Ltd) was screened to identify drugs targeting the apical domain of HSP60 critical for its interaction with ClpP. 9 compounds (A-I) were identified and screened for their cell death inducing potential in PCa cells (data not shown). […] Colony forming ability of PCa cells was inhibited by DCEM1 treatment (data not shown).

[2] = molecular target: T1, HSP60-ClpP interaction (Homo sapiens, UniProt P10809); assay: Proximity ligation assay (PLA) of HSP60-ClpP in PCa cells; conditions: data not shown
T1 construct: endogenous in cells
T1 sequence (P10809 27-573): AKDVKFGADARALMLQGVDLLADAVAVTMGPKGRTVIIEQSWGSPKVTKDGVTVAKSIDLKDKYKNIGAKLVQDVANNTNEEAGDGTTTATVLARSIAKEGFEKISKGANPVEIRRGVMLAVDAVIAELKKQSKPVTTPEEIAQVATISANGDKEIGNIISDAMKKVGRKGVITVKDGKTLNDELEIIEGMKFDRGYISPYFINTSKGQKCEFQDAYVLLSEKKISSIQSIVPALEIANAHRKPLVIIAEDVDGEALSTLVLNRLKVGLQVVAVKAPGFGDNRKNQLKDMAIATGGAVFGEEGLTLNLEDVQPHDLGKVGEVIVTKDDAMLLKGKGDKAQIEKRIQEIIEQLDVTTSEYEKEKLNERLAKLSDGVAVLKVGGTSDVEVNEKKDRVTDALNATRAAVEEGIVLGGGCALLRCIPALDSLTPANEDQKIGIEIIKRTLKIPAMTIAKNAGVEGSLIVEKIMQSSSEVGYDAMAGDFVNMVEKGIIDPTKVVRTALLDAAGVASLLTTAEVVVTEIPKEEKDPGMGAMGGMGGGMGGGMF
Method: as §1

[3] = system: LNCaP and PC-3 cells; assay: mitoROS by flow cytometry using mitoSOX dye
Method: FIG. 6. Pharmacological inhibition of HSP60-ClpP interaction induces UPR^mt and PCa cell death. (A) Docking of DCEM1 into apical domain of HSP60. (B) LNCaP and PC-3 cells were treated with DCEM1 for 24 hours and HSP60-ClpP interaction was analyzed by co-immunoprecipitation assay. (C) LNCaP and PC-3 cells were treated with DCEM1 for 24 hours and mitoROS levels were analyzed by flow cytometry using mitoSOX dye. (D) LNCaP and PC-3 cells were treated with DCEM1 for 24 hours and poly-Ub protein levels were analyzed by western blotting. (E) LNCaP and PC-3 cells were treated with DCEM1 for 24 and 48 hours and apoptotic cell populations were analyzed by flow cytometry using Annexin V FITC/PI method as explained in materials and methods. In (E) top panel, the bars in each series from left to right are control, 5, 10, and 20, and in (E) bottom panel, the bars in each series from left to right are DMSO, 5, 10, and 20. (F) LNCaP and PC-3 cells were treated with DCEM1 for 24 and 48 hours and lysates were prepared and analyzed for DEVDase activity using specific peptide substrate. In (F), the bars in each series from left to right are DMSO, 5, 10, and 20. (G) LNCaP and PC-3 cells were pre-treated with SKQ1 followed by DCEM1 treatment and analyzed for cell viability by MTT assay. (H) LNCaP and PC-3 cells were treated with either DCEM1 or H2O2 (200 μM) for 24 hours and total DNA were isolated and analyzed for mtDNA damage as described in materials and methods.
FIG. 7. […] (A) LNCaP and PC-3 cells were pre-treated with either rotenone or antimycin-A followed by DCEM1 treatment and mitochondrial ROS was analyzed as described in material and methods (data represented as fold change compared to control). In (A), the bars in each series from left to right are control, DCEM1, Rot+DCEM1, Anti A+DCEM1, Rot, and Anti A (B) ClpP protein was over-expressed in LNCaP and PC-3 cells followed by DCEM1 treatment and mitochondrial ROS was analyzed as described in material and methods (Data represented as fold change compared to control). […]

[4] = system: LNCaP and PC-3 cells; assay: poly-Ub protein levels by western blotting; conditions: 24 hours
Method: FIG. 6. Pharmacological inhibition of HSP60-ClpP interaction induces UPR^mt and PCa cell death. (A) Docking of DCEM1 into apical domain of HSP60. (B) LNCaP and PC-3 cells were treated with DCEM1 for 24 hours and HSP60-ClpP interaction was analyzed by co-immunoprecipitation assay. (C) LNCaP and PC-3 cells were treated with DCEM1 for 24 hours and mitoROS levels were analyzed by flow cytometry using mitoSOX dye. (D) LNCaP and PC-3 cells were treated with DCEM1 for 24 hours and poly-Ub protein levels were analyzed by western blotting. (E) LNCaP and PC-3 cells were treated with DCEM1 for 24 and 48 hours and apoptotic cell populations were analyzed by flow cytometry using Annexin V FITC/PI method as explained in materials and methods. In (E) top panel, the bars in each series from left to right are control, 5, 10, and 20, and in (E) bottom panel, the bars in each series from left to right are DMSO, 5, 10, and 20. (F) LNCaP and PC-3 cells were treated with DCEM1 for 24 and 48 hours and lysates were prepared and analyzed for DEVDase activity using specific peptide substrate. […] (G) LNCaP and PC-3 cells were pre-treated with SKQ1 followed by DCEM1 treatment and analyzed for cell viability by MTT assay. (H) LNCaP and PC-3 cells were treated with either DCEM1 or H2O2 (200 μM) for 24 hours and total DNA were isolated and analyzed for mtDNA damage as described in materials and methods. […]

[5] = system: LNCaP and PC-3 cells; assay: AMPK and mTOR signaling pathways / autophagy activation; conditions: PCa cells
Method: FIG. 7. Pharmacological inhibition of HSP60-ClpP interaction induces metabolic stress in PCa cells. (A) LNCaP and PC-3 cells were pre-treated with either rotenone or antimycin-A followed by DCEM1 treatment and mitochondrial ROS was analyzed as described in material and methods (data represented as fold change compared to control). In (A), the bars in each series from left to right are control, DCEM1, Rot+DCEM1, Anti A+DCEM1, Rot, and Anti A (B) ClpP protein was over-expressed in LNCaP and PC-3 cells followed by DCEM1 treatment and mitochondrial ROS was analyzed as described in material and methods (Data represented as fold change compared to control). In (B), the bars in each series from left to right are DMSO and DCEM1. (C) ClpP protein was over-expressed in LNCaP and PC-3 cells followed by DCEM1 treatment and level of poly-ubiquitinated protein was analyzed by western blotting. (D) ClpP protein was over-expressed in LNCaP and PC-3 cells followed by DCEM1 treatment and DEVDase activity was analyzed as described in material and methods (Data represented as fold change compared to control). In (D), the bars in each series from left to right are DMSO and DCEM1. (E) Mitochondrial membrane potential (mitoMP) was analyzed in LNCaP and PC-3 cells treated with DCEM1 as described in material and methods (Data represented as fold change compared to control). In (E), the bars in each series from left to right are DMSO, 5, and 10. (F) ATP level was analyzed in LNCaP and PC-3 cells treated with DCEM1 as described in material and methods (Data represented as fold change compared to control). In (F), the bars in each series from left to right are 0, 5, 10, and 20. (G) Oxygen consumption rate was analyzed in PC-3 cells treated with DCEM1 as described in material and methods and represented as basal and maximal respiration rate; Spare respiratory capacity and ATP production potential. […]
Abrogation of HSP60-ClpP interaction by DCEM1 induces metabolic stress in PCa cells. […] Since ATP depletion/reduction induces autophagy, autophagy activation in PCa cells was analyzed in response to DCEM1 treatment.

CCOc1cc(CNCc2nc3ccccc3[nH]2)ccc1OCc1cccs1 [DCEM1]
effect (cell death/apoptosis) on non-carcinoma prostate epithelial RWPE-1 cells [1]: no effect | HSP60-ClpP interaction by PLA [2]: efficiently inhibited HSP60-ClpP interaction | DCEM1-induced mitoROS production and DEVDase activity with ClpP overexpression ([3]; ClpP over-expressed in LNCaP and PC-3 cells followed by DCEM1): inhibited | mitoROS levels ([3]; LNCaP and PC-3 cells, 24 hours): mitoROS upregulation | DCEM1-induced mitoROS production with inhibition of Complex I or III ([3]; pre-treated with rotenone or antimycin-A followed by DCEM1): not attenuated | poly-Ub protein levels [4]: increased accumulation of poly-Ub proteins | ULK1 phosphorylation [5]: enhanced phosphorylation at serine 555 residue and decreased phosphorylation at serine 757 residue | mTOR signaling [5]: inhibited mTOR signaling | p-AMPKa levels and LC3B cleavage [5]: Robust increase
